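Tested at 5 concentrations; 48 h exposure; 96-well plates; endpoints linearly interpolated, else capped at highest concentration. GI50 is the concentration that inhibits growth by half.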 Calls of active or inactive are those of the source. Cut-off read from the data, not from the text of the source: active = GI50 up to about 1.1 µM and inactive = higher.
Assays:
Assay in all cases: NCI-60 cell line screen, 48 h
COLO 205 = system: COLO 205
HCT-116 = system: HCT-116
HL-60 = system: HL-60
K562 = system: K562
MCF7 = system: MCF7
Malme-3M = system: Malme-3M
NCI-H226 = system: NCI-H226
NCI-H460 = system: NCI-H460
NCI-H522 = system: NCI-H522
OVCAR-5 = system: OVCAR-5
PC-3 = system: PC-3
SF-295 = system: SF-295
SF-539 = system: SF-539
SK-MEL-2 = system: SK-MEL-2
SN12C = system: SN12C
SNB-19 = system: SNB-19
SW-620 = system: SW-620
U-251 = system: U-251
UACC-257 = system: UACC-257
UO-31 = system: UO-31

Measured: GI50

CC(=O)NCCC1CN(C(=O)/C=C\I)c2ccccc21 (stereo not given)
inactive: COLO 205 11.7 µM | HCT-116 14.6 µM | HL-60 2.7 µM | K562 3.76 µM | MCF7 2.56 µM | Malme-3M 15.2 µM | NCI-H226 10.7 µM | NCI-H460 9.75 µM | NCI-H522 1.78 µM | OVCAR-5 16.6 µM | PC-3 11.7 µM | SF-295 15.3 µM | SF-539 5.32 µM | SK-MEL-2 16 µM | SN12C 4.97 µM | SNB-19 20.4 µM | SW-620 12.7 µM | U-251 12.9 µM | UACC-257 13.8 µM | UO-31 7.69 µM

CCOC(=O)c1c(N2CCCC2)[nH]c(=O)c(C(c2ccco2)c2c(O)c(C(=O)OCC)c(N3CCCC3)[nH]c2=O)c1O
inactive: COLO 205 > 100 µM | HCT-116 > 100 µM | HL-60 > 100 µM | K562 > 100 µM | MCF7 > 100 µM | Malme-3M > 100 µM | NCI-H226 > 100 µM | NCI-H460 > 100 µM | NCI-H522 84.9 µM | OVCAR-5 67.9 µM | PC-3 > 100 µM | SF-295 40.3 µM | SF-539 > 100 µM | SK-MEL-2 > 100 µM | SN12C > 100 µM | SNB-19 38.7 µM | SW-620 > 100 µM | U-251 73.8 µM | UACC-257 > 100 µM | UO-31 > 100 µM

CCOP(=O)(OCC)/C(C#N)=C/c1cnc(C)[nH]1
inactive: COLO 205 > 100 µM | HCT-116 > 100 µM | HL-60 > 100 µM | K562 > 100 µM | MCF7 > 100 µM | Malme-3M > 100 µM | NCI-H226 > 100 µM | NCI-H460 > 100 µM | NCI-H522 > 100 µM | OVCAR-5 > 100 µM | PC-3 > 100 µM | SF-295 > 100 µM | SF-539 > 100 µM | SK-MEL-2 > 100 µM | SN12C > 100 µM | SNB-19 > 100 µM | SW-620 > 100 µM | U-251 > 100 µM | UACC-257 > 100 µM | UO-31 > 100 µM

Cc1ccc(/N=N\c2c(O)c(S(=O)(=O)O)cc3cc(S(=O)(=O)O)ccc23)c(C)c1
inactive: COLO 205 > 100 µM | HCT-116 > 100 µM | HL-60 > 100 µM | K562 > 100 µM | MCF7 > 100 µM | Malme-3M > 100 µM | NCI-H226 > 100 µM | NCI-H460 > 100 µM | NCI-H522 > 100 µM | OVCAR-5 > 100 µM | PC-3 > 100 µM | SF-295 > 100 µM | SF-539 > 100 µM | SK-MEL-2 > 100 µM | SN12C > 100 µM | SNB-19 > 100 µM | SW-620 > 100 µM | U-251 > 100 µM | UACC-257 > 100 µM | UO-31 > 100 µM

Source: ChEMBL document CHEMBL1201862, “PubChem BioAssay data set” (2004)
